From the NIST ThermoML archive (doi:10.1021/je400055v)
± gives the expanded uncertainty stated by the source.

Assay: xn = mol fraction of the nth substance listed
Conditions: Liquid, Vibrating tube method

CCCCCCCCCCC [undecane] + CCCCCCC
mass density (323.12 K, 7000 kPa, x2 = 0.7482): 685.4 ± 0.3 kg/m3 | mass density (323.12 K, 8000 kPa, x2 = 0.7482): 686.4 ± 0.3 kg/m3 | mass density (323.12 K, 8001 kPa, x2 = 0.05): 722.8 ± 0.3 kg/m3 | mass density (323.12 K, 9000 kPa, x2 = 0.05): 723.6 ± 0.3 kg/m3 | mass density (323.12 K, 9000 kPa, x2 = 0.7482): 687.3 ± 0.3 kg/m3 | mass density (323.12 K, 10000 kPa, x2 = 0.05): 724.5 ± 0.3 kg/m3 | mass density (323.12 K, 10000 kPa, x2 = 0.7482): 688.3 ± 0.3 kg/m3 | mass density (323.12 K, 11000 kPa, x2 = 0.05): 725.3 ± 0.3 kg/m3 | mass density (323.12 K, 11000 kPa, x2 = 0.7482): 689.2 ± 0.3 kg/m3 | mass density (323.12 K, 12000 kPa, x2 = 0.05): 726.1 ± 0.3 kg/m3 | mass density (323.12 K, 12000 kPa, x2 = 0.7482): 690.1 ± 0.3 kg/m3 | mass density (323.12 K, 13000 kPa, x2 = 0.05): 726.8 ± 0.3 kg/m3 | mass density (323.12 K, 13000 kPa, x2 = 0.7482): 691.1 ± 0.4 kg/m3 | mass density (323.12 K, 14000 kPa, x2 = 0.05): 727.6 ± 0.3 kg/m3 | mass density (323.12 K, 14000 kPa, x2 = 0.7482): 691.9 ± 0.4 kg/m3 | mass density (323.12 K, 15000 kPa, x2 = 0.05): 728.4 ± 0.3 kg/m3 | mass density (323.12 K, 15000 kPa, x2 = 0.7482): 692.8 ± 0.4 kg/m3 | mass density (323.12 K, 16000 kPa, x2 = 0.05): 729.1 ± 0.4 kg/m3 | mass density (323.12 K, 16000 kPa, x2 = 0.7482): 693.7 ± 0.4 kg/m3 | mass density (323.12 K, 17000 kPa, x2 = 0.05): 729.9 ± 0.4 kg/m3 | mass density (323.12 K, 17000 kPa, x2 = 0.7482): 694.5 ± 0.4 kg/m3 | mass density (323.12 K, 18000 kPa, x2 = 0.05): 730.6 ± 0.4 kg/m3 | mass density (323.12 K, 18000 kPa, x2 = 0.7482): 695.4 ± 0.4 kg/m3 | mass density (323.12 K, 19000 kPa, x2 = 0.05): 731.3 ± 0.4 kg/m3 | mass density (323.12 K, 19000 kPa, x2 = 0.7482): 696.2 ± 0.4 kg/m3 | mass density (323.12 K, 20000 kPa, x2 = 0.05): 732 ± 0.4 kg/m3 | mass density (323.12 K, 20000 kPa, x2 = 0.7482): 697 ± 0.4 kg/m3 | mass density (323.12 K, 21000 kPa, x2 = 0.05): 732.7 ± 0.4 kg/m3 | mass density (323.12 K, 21000 kPa, x2 = 0.7482): 697.8 ± 0.4 kg/m3 | mass density (323.12 K, 22000 kPa, x2 = 0.7482): 698.6 ± 0.4 kg/m3 | mass density (323.12 K, 22001 kPa, x2 = 0.05): 733.4 ± 0.4 kg/m3 | mass density (323.12 K, 23000 kPa, x2 = 0.05): 734.1 ± 0.4 kg/m3 | mass density (323.12 K, 23000 kPa, x2 = 0.7482): 699.4 ± 0.4 kg/m3 | mass density (323.12 K, 24000 kPa, x2 = 0.05): 734.8 ± 0.4 kg/m3 | mass density (323.12 K, 24000 kPa, x2 = 0.7482): 700.1 ± 0.4 kg/m3 | mass density (323.12 K, 25000 kPa, x2 = 0.05): 735.4 ± 0.4 kg/m3 | mass density (323.12 K, 25000 kPa, x2 = 0.7482): 700.9 ± 0.5 kg/m3 | mass density (323.15 K, 1000 kPa, x2 = 0.2346): 708.9 ± 0.3 kg/m3 | mass density (323.15 K, 2000 kPa, x2 = 0.2346): 709.9 ± 0.3 kg/m3 | mass density (323.15 K, 3000 kPa, x2 = 0.2346): 710.8 ± 0.3 kg/m3 | mass density (323.15 K, 4001 kPa, x2 = 0.2346): 711.7 ± 0.3 kg/m3 | mass density (323.15 K, 5001 kPa, x2 = 0.2346): 712.6 ± 0.3 kg/m3 | mass density (323.15 K, 6001 kPa, x2 = 0.2346): 713.5 ± 0.3 kg/m3 | mass density (323.15 K, 7001 kPa, x2 = 0.2346): 714.4 ± 0.3 kg/m3 | mass density (323.15 K, 8000 kPa, x2 = 0.2346): 715.2 ± 0.3 kg/m3 | mass density (323.15 K, 9000 kPa, x2 = 0.2346): 716.1 ± 0.3 kg/m3 | mass density (323.15 K, 10000 kPa, x2 = 0.2346): 716.9 ± 0.3 kg/m3 | mass density (323.15 K, 11000 kPa, x2 = 0.2346): 717.7 ± 0.3 kg/m3 | mass density (323.15 K, 12000 kPa, x2 = 0.2346): 718.5 ± 0.3 kg/m3 | mass density (323.15 K, 13000 kPa, x2 = 0.2346): 719.4 ± 0.3 kg/m3 | mass density (323.15 K, 14000 kPa, x2 = 0.2346): 720.1 ± 0.3 kg/m3 | mass density (323.15 K, 15000 kPa, x2 = 0.2346): 720.9 ± 0.4 kg/m3 | mass density (323.15 K, 16001 kPa, x2 = 0.2346): 721.7 ± 0.4 kg/m3 | mass density (323.15 K, 17000 kPa, x2 = 0.2346): 722.5 ± 0.4 kg/m3 | mass density (323.15 K, 18000 kPa, x2 = 0.2346): 723.2 ± 0.4 kg/m3 | mass density (323.15 K, 19000 kPa, x2 = 0.2346): 724 ± 0.4 kg/m3 | mass density (323.15 K, 20000 kPa, x2 = 0.2346): 724.7 ± 0.4 kg/m3 | mass density (323.15 K, 21033 kPa, x2 = 0.2346): 725.4 ± 0.4 kg/m3 | mass density (323.15 K, 22034 kPa, x2 = 0.2346): 726.1 ± 0.4 kg/m3 | mass density (323.15 K, 23036 kPa, x2 = 0.2346): 726.9 ± 0.4 kg/m3 | mass density (323.15 K, 24037 kPa, x2 = 0.2346): 727.5 ± 0.4 kg/m3 | mass density (323.15 K, 25039 kPa, x2 = 0.2346): 728.2 ± 0.4 kg/m3 | mass density (333.01 K, 1001 kPa, x2 = 0.9511): 654.4 ± 0.3 kg/m3 | mass density (333.01 K, 2000 kPa, x2 = 0.9511): 655.7 ± 0.3 kg/m3 | mass density (333.01 K, 3000 kPa, x2 = 0.9511): 656.9 ± 0.3 kg/m3 | mass density (333.01 K, 4000 kPa, x2 = 0.9511): 658.2 ± 0.3 kg/m3 | mass density (333.01 K, 5000 kPa, x2 = 0.9511): 659.4 ± 0.3 kg/m3 | mass density (333.01 K, 6000 kPa, x2 = 0.9511): 660.5 ± 0.3 kg/m3 | mass density (333.01 K, 7000 kPa, x2 = 0.9511): 661.7 ± 0.3 kg/m3 | mass density (333.01 K, 8000 kPa, x2 = 0.9511): 662.8 ± 0.3 kg/m3 | mass density (333.01 K, 9000 kPa, x2 = 0.9511): 663.9 ± 0.3 kg/m3 | mass density (333.01 K, 10000 kPa, x2 = 0.9511): 665 ± 0.3 kg/m3 | mass density (333.01 K, 11000 kPa, x2 = 0.9511): 666.1 ± 0.4 kg/m3 | mass density (333.01 K, 12000 kPa, x2 = 0.9511): 667.1 ± 0.4 kg/m3 | mass density (333.01 K, 13000 kPa, x2 = 0.9511): 668.2 ± 0.4 kg/m3 | mass density (333.01 K, 14001 kPa, x2 = 0.9511): 669.2 ± 0.4 kg/m3 | mass density (333.01 K, 15001 kPa, x2 = 0.9511): 670.2 ± 0.4 kg/m3 | mass density (333.01 K, 16000 kPa, x2 = 0.9511): 671.2 ± 0.4 kg/m3 | mass density (333.01 K, 17001 kPa, x2 = 0.9511): 672.1 ± 0.4 kg/m3 | mass density (333.01 K, 18001 kPa, x2 = 0.9511): 673.1 ± 0.4 kg/m3 | mass density (333.01 K, 19000 kPa, x2 = 0.9511): 674 ± 0.4 kg/m3 | mass density (333.01 K, 20000 kPa, x2 = 0.9511): 674.9 ± 0.4 kg/m3 | mass density (333.01 K, 21001 kPa, x2 = 0.9511): 675.8 ± 0.4 kg/m3 | mass density (333.01 K, 22000 kPa, x2 = 0.9511): 676.7 ± 0.5 kg/m3 | mass density (333.01 K, 23001 kPa, x2 = 0.9511): 677.6 ± 0.5 kg/m3 | mass density (333.01 K, 24000 kPa, x2 = 0.9511): 678.5 ± 0.5 kg/m3 | mass density (333.01 K, 25000 kPa, x2 = 0.9511): 679.3 ± 0.5 kg/m3 | mass density (333.04 K, 2001 kPa, x2 = 0.5063): 688 ± 0.3 kg/m3 | mass density (333.04 K, 3000 kPa, x2 = 0.5063): 689 ± 0.3 kg/m3 | mass density (333.04 K, 4000 kPa, x2 = 0.5063): 690.1 ± 0.3 kg/m3 | mass density (333.04 K, 5000 kPa, x2 = 0.5063): 691.1 ± 0.3 kg/m3 | mass density (333.04 K, 6000 kPa, x2 = 0.5063): 692.1 ± 0.3 kg/m3 | mass density (333.04 K, 7000 kPa, x2 = 0.5063): 693.1 ± 0.3 kg/m3
